According to PubChem BioAssay (NCI):
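Exposure lasted 48 hours, with cells grown in 96-well plates and compounds tested at five concentrations. Here, GI50 denotes the concentration required for 50% inhibition of growth. TGI: total growth inhibition.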

Key:
Experiment in all cases: growth of human tumour cells (NCI), 48 h
786-0 renal = test system: 786-0 renal
A498 renal = test system: A498 renal
A549 NSCLC = test system: A549 NSCLC
ACHN renal = test system: ACHN renal
BT-549 breast = test system: BT-549 breast
CAKI-1 renal = test system: CAKI-1 renal
CCRF-CEM leukemia = test system: CCRF-CEM leukemia
COLO 205 colon = test system: COLO 205 colon
DU-145 prostate = test system: DU-145 prostate
EKVX NSCLC = test system: EKVX NSCLC
HCC-2998 colon = test system: HCC-2998 colon
HCT-116 colon = test system: HCT-116 colon
HCT-15 colon = test system: HCT-15 colon
HL-60(TB) leukemia = test system: HL-60(TB) leukemia
HOP-62 NSCLC = test system: HOP-62 NSCLC
HS 578T breast = test system: HS 578T breast
HT29 colon = test system: HT29 colon
K-562 leukemia = test system: K-562 leukemia
KM12 colon = test system: KM12 colon
LOX IMVI melanoma = test system: LOX IMVI melanoma
M14 melanoma = test system: M14 melanoma
MCF7 breast = test system: MCF7 breast
MDA-MB-231 breast = test system: MDA-MB-231 breast
MDA-MB-435 = test system: MDA-MB-435
MOLT-4 leukemia = test system: MOLT-4 leukemia
NCI-H226 lung = test system: NCI-H226 lung
NCI-H23 lung = test system: NCI-H23 lung
NCI-H460 lung = test system: NCI-H460 lung
NCI-H522 lung = test system: NCI-H522 lung
NCI/ADR-RES ovarian = test system: NCI/ADR-RES ovarian
OVCAR-3 ovarian = test system: OVCAR-3 ovarian
OVCAR-4 ovarian = test system: OVCAR-4 ovarian
OVCAR-5 ovarian = test system: OVCAR-5 ovarian
OVCAR-8 ovarian = test system: OVCAR-8 ovarian
PC-3 prostate = test system: PC-3 prostate
RPMI-8226 leukemia = test system: RPMI-8226 leukemia
RXF 393 renal = test system: RXF 393 renal
SF-268 CNS = test system: SF-268 CNS
SF-295 CNS = test system: SF-295 CNS
SF-539 CNS = test system: SF-539 CNS
SK-MEL-2 melanoma = test system: SK-MEL-2 melanoma
SK-MEL-28 melanoma = test system: SK-MEL-28 melanoma
SK-MEL-5 melanoma = test system: SK-MEL-5 melanoma
SK-OV-3 ovarian = test system: SK-OV-3 ovarian
SN12C renal = test system: SN12C renal
SNB-19 CNS = test system: SNB-19 CNS
SNB-75 CNS = test system: SNB-75 CNS
SR leukemia = test system: SR leukemia
SW-620 colon = test system: SW-620 colon
T-47D breast = test system: T-47D breast
TK-10 renal = test system: TK-10 renal
U251 CNS = test system: U251 CNS
UACC-257 melanoma = test system: UACC-257 melanoma
UACC-62 melanoma = test system: UACC-62 melanoma

CCCCN(CCCC)P(=O)(Oc1ccccc1)Oc1ccccc1
GI50 (786-0 renal): 12.3 µM
TGI (786-0 renal): 25.2 µM
GI50 (A498 renal): 11.6 µM
TGI (A498 renal): 24.1 µM
GI50 (A549 NSCLC): 5.06 µM
TGI (A549 NSCLC): 19.6 µM
GI50 (ACHN renal): 5.78 µM
TGI (ACHN renal): 19.3 µM
GI50 (BT-549 breast): 14.9 µM
TGI (BT-549 breast): 28.3 µM
GI50 (CAKI-1 renal): 2.42 µM
TGI (CAKI-1 renal): 11.3 µM
GI50 (CCRF-CEM leukemia): 8.35 µM
TGI (CCRF-CEM leukemia): 59.3 µM
GI50 (COLO 205 colon): 11.3 µM
TGI (COLO 205 colon): 26.7 µM
GI50 (DU-145 prostate): 11.1 µM
TGI (DU-145 prostate): 24 µM
GI50 (EKVX NSCLC): 3.39 µM
TGI (EKVX NSCLC): 17.2 µM
GI50 (HCC-2998 colon): 10 µM
TGI (HCC-2998 colon): 22.2 µM
GI50 (HCT-116 colon): 3.39 µM
TGI (HCT-116 colon): 16.8 µM
GI50 (HCT-15 colon): 4.73 µM
TGI (HCT-15 colon): 22 µM
GI50 (HL-60(TB) leukemia): 4.54 µM
TGI (HL-60(TB) leukemia): 18.7 µM
GI50 (HOP-62 NSCLC): 14 µM
TGI (HOP-62 NSCLC): 27.7 µM
GI50 (HS 578T breast): 6.6 µM
TGI (HS 578T breast): 24.8 µM
GI50 (HT29 colon): 4.95 µM
TGI (HT29 colon): 21.6 µM
GI50 (K-562 leukemia): 7.01 µM
TGI (K-562 leukemia): > 100 µM
GI50 (KM12 colon): 8.1 µM
TGI (KM12 colon): 21.4 µM
GI50 (LOX IMVI melanoma): 12.9 µM
TGI (LOX IMVI melanoma): 26.5 µM
GI50 (M14 melanoma): 11.6 µM
TGI (M14 melanoma): 25.6 µM
GI50 (MCF7 breast): 4.83 µM
TGI (MCF7 breast): 18.6 µM
GI50 (MDA-MB-231 breast): 8.08 µM
TGI (MDA-MB-231 breast): 23.3 µM
GI50 (MDA-MB-435): 6.2 µM
TGI (MDA-MB-435): 19.9 µM
GI50 (MOLT-4 leukemia): 6.18 µM
TGI (MOLT-4 leukemia): 38.4 µM
GI50 (NCI-H226 lung): 10.4 µM
TGI (NCI-H226 lung): 25.4 µM
GI50 (NCI-H23 lung): 4.56 µM
TGI (NCI-H23 lung): 17.7 µM
GI50 (NCI-H460 lung): 5.24 µM
TGI (NCI-H460 lung): 18.9 µM
GI50 (NCI-H522 lung): 3.96 µM
TGI (NCI-H522 lung): 18.2 µM
GI50 (NCI/ADR-RES ovarian): 5.23 µM
TGI (NCI/ADR-RES ovarian): 18.7 µM
GI50 (OVCAR-3 ovarian): 6.44 µM
TGI (OVCAR-3 ovarian): 18.7 µM
GI50 (OVCAR-4 ovarian): 7.35 µM
TGI (OVCAR-4 ovarian): 20.5 µM
GI50 (OVCAR-5 ovarian): 13.3 µM
TGI (OVCAR-5 ovarian): 28.3 µM
GI50 (OVCAR-8 ovarian): 11.1 µM
TGI (OVCAR-8 ovarian): 27.4 µM
GI50 (PC-3 prostate): 3.79 µM
TGI (PC-3 prostate): 17.6 µM
GI50 (RPMI-8226 leukemia): 5.12 µM
TGI (RPMI-8226 leukemia): 26.8 µM
GI50 (RXF 393 renal): 1.85 µM
TGI (RXF 393 renal): 5.97 µM
GI50 (SF-268 CNS): 8.86 µM
TGI (SF-268 CNS): 21.9 µM
GI50 (SF-295 CNS): 3.49 µM
TGI (SF-295 CNS): 16.1 µM
GI50 (SF-539 CNS): 14 µM
TGI (SF-539 CNS): 28.6 µM
GI50 (SK-MEL-2 melanoma): 11.8 µM
TGI (SK-MEL-2 melanoma): 28 µM
GI50 (SK-MEL-28 melanoma): 15.3 µM
TGI (SK-MEL-28 melanoma): 29.2 µM
GI50 (SK-MEL-5 melanoma): 11.5 µM
TGI (SK-MEL-5 melanoma): 23.7 µM
GI50 (SK-OV-3 ovarian): 14.9 µM
TGI (SK-OV-3 ovarian): 33.6 µM
GI50 (SN12C renal): 5.53 µM
TGI (SN12C renal): 19.7 µM
GI50 (SNB-19 CNS): 8.82 µM
TGI (SNB-19 CNS): 23.5 µM
GI50 (SNB-75 CNS): 11.3 µM
TGI (SNB-75 CNS): 27.3 µM
GI50 (SR leukemia): 7.34 µM
TGI (SR leukemia): 68.5 µM
GI50 (SW-620 colon): 5.41 µM
TGI (SW-620 colon): 19.4 µM
GI50 (T-47D breast): 7.46 µM
TGI (T-47D breast): 33.1 µM
GI50 (TK-10 renal): 15.8 µM
TGI (TK-10 renal): 33.1 µM
GI50 (U251 CNS): 5.59 µM
TGI (U251 CNS): 19.1 µM
GI50 (UACC-257 melanoma): 8.04 µM
TGI (UACC-257 melanoma): 22.4 µM
GI50 (UACC-62 melanoma): 11.9 µM
TGI (UACC-62 melanoma): 25.7 µM
